Experimental data published in patent US20130331389A1, “Methods and Compositions for Cardiomyocyte Replenishment by Endogenous and Progenitor Stem Cells” (NATIONAL CHENG KUNG UNIVERSITY, priority 2012, published 2013).

Key:
MerCreMer/ZEG (M/Z) mice = assay: Cardiomyocyte replenishment after myocardial infarction, GFP+ / β-Gal+ cardiomyocyte counting; type: in vivo, mouse
Protocol: All experiments involving animals were conducted in accordance with the Guide for the Use and Care of Laboratory Animals, and all animal protocols have been approved by National Cheng Kung University. Sca-1^− GFP, B6.Cg-Tg(Ly6a-GFP)G5Dzk/J and EP2^−/−, B6.129-Ptger2^tm/Brey/J mice were obtained from Jackson Laboratory. The double transgenic MerCreMer/ZEG (M/Z) mice were generated by crossbreeding MerCreMer and Z/EG mice (Jackson Laboratory), which have C57BL/6SV129 and C57BL/6J (N7) background strains, respectively. The MerCreMer mice contain a tamoxifen-inducible Cre recombinase fusion protein driven by the cardiomyocyte-specific α-MHC promoter. In Z/EG mice, GFP replace constitutive β-Gal expression after the removal of a LoxP-flanked stop sequence by Cre.
M/Z mice were subjected to experimental myocardial infarction (MI) one month after the last tamoxifen injection. MI was generated by ligating the left anterior descending coronary artery at 2-3 mm distal to the left atrial appendage. For cell transplantation experiments, intramyocardial injections were performed immediately after coronary ligation. A total of 6×10^5 cardiac Sca-1^+ cells were injected per mouse in two divided injections (5 μl/injection). For BrdU labeling, the mice were subcutaneously implanted with osmotic minipump (Alzet) at the time of surgery and 40 μg/μl of BrdU (Sigma) was administrated. For immunohistological studies, mice were sacrificed and the hearts were harvested at different time points following experimental MI surgery. Cardiac performances were assessed by echocardiography at 28 and 56 days after operation using Vevo 770 (Visualsonics, Toronto, Canada).
(§1) To induce Cre recombination to achieve GFP labeling of cardiomyocytes, tamoxifen (Sigma) was dissolved in sunflower oil (Sigma) at a concentration of 5 mg/ml. The tamoxifen solution was injected intraperitoneally into M/Z mice daily at a dosage of 40 μg per 1 g body weight for 14 days, and the same dosage was injected twice daily for short-term labeling using methods known in the art (Laugwitz, K.-L. et al. Nature 433, 647-653 (2005)). All experimental conditions were optimized prior to the PGE2, indomethacin and TGF-β Type I Receptor Kinase Inhibitor II (ALK5 Inhibitor II, ALK5i, Merck) treatments. The mice treated with PGE2 or PGI2 (Vegiopoulos, A. et al. Science 328, 1158-1161 (2010)) (both from Sigma) were injected intraperitoneally with 3.33 ng of drug per 1 g of body weight dissolved in absolute ethanol twice daily. For the indomethacin treatment, mice were fed with water containing indomethacin (Sigma, 15 μg/ml) for different periods of time. The indomethacin-containing water was changed every 3 days. The mice subjected to the celecoxib (Lyons, T. R. et al. Nat. Med. 17, 1109-1115 (2011)) (Sigma) treatment were injected intraperitoneally with 5 μg of drug per 1 g of body weight daily. For ALK5i treatment, aged mice were injected intraperitoneally once per day with 1 μg of drug per 1 g of body weight one day before surgery and continuously until day 10 post-MI. Celecoxib and ALK5i were dissolved in ethanol and DMSO, respectively.
All of the cellular quantifications were performed double-blindly to minimize personal bias. […] For the cardiomyocyte cell counts, 3 sections from each heart, and 2 infarction border zones and 1 remote area from each section were analyzed at a magnification of 200× by light microscopy. Cells with visible sarcomere structures were analyzed, and the average number of cells counted was 171.8±5.8 per photo image. For the small cardiac cell counts, more than five sections from each heart were analyzed at a magnification of 400× using fluorescence microscopy. The average number of cells counted was 17.01±0.99 per photo image, and more than one hundred and fifty cells were analyzed from each heart. As quantification result is the averaged values calculated from the pictures taken from six border zone sections per heart, personal variation has been minimized. […]

Sca-1 = assay: Quantitative RT-PCR of Sca-1 in infarct zone of MI heart; type: in vivo, mouse; details: young mice, day 3 post-MI
Protocol: as §1
The total RNA isolated from the ischemic region or remote area of MI hearts was reverse transcribed using the SuperScript III (Invitrogen) system according to the manufacturer's protocol. For quantitative PCR, the SYBR Green reagent (Maestrogen) was used according to the manufacturer's protocol. The analysis of relative gene expression was performed using the 2̂[−delta delta Ct] method and sequence-specific primers designed for semi-quantitative PCR and real-time RT-PCR (FIG. 11).

Structure (SMILES): Cc1cccc(-c2[nH]ncc2-c2ccc3ncccc3n2)n1 [ALK5i]
- cardiomyocyte replenishment in comparison with the vehicle control group (MerCreMer/ZEG (M/Z) mice; aged mice, 1 μg per 1 g i.p. once per day from one day before surgery until day 10 post-MI, day 14 post-MI, P<0.01): restored cardiomyocyte replenishment

Structure (SMILES): CCCCC[C@H](O)/C=C/[C@@H]1[C@H]2C/C(=C/CCCC(=O)O)O[C@H]2C[C@H]1O [PGI2, prostaglandin I2]
- significant increase of cardiomyocyte replenishment compared to the vehicle control (in words) (MerCreMer/ZEG (M/Z) mice; border zone, 3.33 ng per 1 g i.p. twice daily for 14 days): not

Structure (SMILES): COc1ccc2c(c1)c(CC(=O)O)c(C)n2C(=O)c1ccc(Cl)cc1 [indomethacin]
- stem cell-dependent cardiomyocyte reconstitution (MerCreMer/ZEG (M/Z) mice; administered more than 5 days post-MI (Indo 9 D)): no significant effect
- drop of cardiomyocyte restoration rate (MerCreMer/ZEG (M/Z) mice; border zone, Indo 14D (1 day before and 14 days after MI), 15 μg/ml in water, P<0.05): about 10%
- cardiomyocyte replenishment (MerCreMer/ZEG (M/Z) mice; border zone, given during the first 5 days post-MI (Indo 5 D), P<0.05): sufficient to impair cardiomyocyte replenishment
- MI-induced cardiomyocyte replenishment (MerCreMer/ZEG (M/Z) mice; remote area, indomethacin in water): abrogated
- Sca-1 expression (Sca-1): repressed
